Reference: patent US20260356819A1, “OXOISOINDOLINYL-SUBSTITUTED […] DERIVATIVE AND USE THEREOF” (GLUETACS THERAPEUTICS (SHANGHAI) CO., LTD., priority 2023, published 2026)

How the values were obtained:
Format in all cases: cell-based
Conditions in all cases: compounds at 50 nM and 500 nM
WEE1 = target: T1, WEE1 (Homo sapiens, UniProt P30291+Q96SW2); test: Western blot degradation of WEE1 in hPBMCs (24 h)
T1 construct: The supernatant was aspirated as the extracted total cell protein; endogenous in cells; host or cells: human peripheral blood mononuclear cells (hPBMCs)
Procedure, shortened: (§1)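 Compounds were tested at 50 nM and 500 nM on hPBMCs (1×10^6 cells/mL) for 24 h, alongside DMSO. Proteins were detected by Western blot after denaturation at 95 °C; remaining protein computed from normalised band grayscale.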

IKZF1 = target: T2, IKZF1 (Homo sapiens, UniProt Q13422+Q96SW2); test: Western blot degradation of IKZF1 in hPBMCs (24 h)
T2 construct: The supernatant was aspirated as the extracted total cell protein; endogenous in cells; host or cells: human peripheral blood mononuclear cells (hPBMCs)
Procedure, shortened: as §1

IKZF2 = target: T3, IKZF2 (Homo sapiens, UniProt Q96SW2+Q9UKS7); test: Western blot degradation of IKZF2 in hPBMCs (24 h)
T3 construct: The supernatant was aspirated as the extracted total cell protein; endogenous in cells; host or cells: human peripheral blood mononuclear cells (hPBMCs)
Procedure, shortened: as §1

IKZF3 = target: T4, IKZF3 (Homo sapiens, UniProt Q96SW2+Q9UKT9); test: Western blot degradation of IKZF3 in hPBMCs (24 h)
T4 construct: The supernatant was aspirated as the extracted total cell protein; endogenous in cells; host or cells: human peripheral blood mononuclear cells (hPBMCs)
Procedure, shortened: as §1

CK1α = target: T5, CK1α (Homo sapiens, UniProt P48729+Q96SW2); test: Western blot degradation of CK1α in hPBMCs (24 h)
T5 construct: The supernatant was aspirated as the extracted total cell protein; endogenous in cells; host or cells: human peripheral blood mononuclear cells (hPBMCs)
Procedure, shortened: as §1

GSPT1 = target: T6, GSPT1 (Homo sapiens, UniProt P15170+Q96SW2); test: Western blot degradation of GSPT1 in hPBMCs (24 h)
T6 construct: The supernatant was aspirated as the extracted total cell protein; endogenous in cells; host or cells: human peripheral blood mononuclear cells (hPBMCs)
Procedure, shortened: as §1

T4 sequence (Q9UKT9 whole entry): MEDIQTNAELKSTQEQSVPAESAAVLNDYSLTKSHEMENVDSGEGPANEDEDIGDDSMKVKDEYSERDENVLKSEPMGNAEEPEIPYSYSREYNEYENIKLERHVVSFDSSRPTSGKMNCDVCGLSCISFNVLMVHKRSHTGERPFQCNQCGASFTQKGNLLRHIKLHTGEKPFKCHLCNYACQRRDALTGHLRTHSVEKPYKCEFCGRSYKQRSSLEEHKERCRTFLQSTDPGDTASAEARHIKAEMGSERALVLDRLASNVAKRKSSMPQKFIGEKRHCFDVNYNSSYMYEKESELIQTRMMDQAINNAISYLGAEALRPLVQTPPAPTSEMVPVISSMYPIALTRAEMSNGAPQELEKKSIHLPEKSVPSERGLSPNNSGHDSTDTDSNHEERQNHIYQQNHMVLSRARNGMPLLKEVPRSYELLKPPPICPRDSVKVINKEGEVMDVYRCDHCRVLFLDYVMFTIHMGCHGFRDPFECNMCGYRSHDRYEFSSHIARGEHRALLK
T4 sequence (Q96SW2 whole entry): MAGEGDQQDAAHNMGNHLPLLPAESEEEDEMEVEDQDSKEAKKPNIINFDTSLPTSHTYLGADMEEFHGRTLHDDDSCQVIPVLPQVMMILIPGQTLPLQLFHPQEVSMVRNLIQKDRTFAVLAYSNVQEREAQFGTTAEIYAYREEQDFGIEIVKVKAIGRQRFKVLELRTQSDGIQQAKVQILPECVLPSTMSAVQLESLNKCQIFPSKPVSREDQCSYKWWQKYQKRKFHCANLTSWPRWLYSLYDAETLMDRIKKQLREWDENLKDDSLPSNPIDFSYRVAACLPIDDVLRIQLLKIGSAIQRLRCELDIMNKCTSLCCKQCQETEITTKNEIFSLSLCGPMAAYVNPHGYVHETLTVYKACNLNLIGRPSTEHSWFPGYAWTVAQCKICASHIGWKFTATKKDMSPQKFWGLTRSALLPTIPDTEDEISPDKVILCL
T4 sequence (Q16531 whole entry partner): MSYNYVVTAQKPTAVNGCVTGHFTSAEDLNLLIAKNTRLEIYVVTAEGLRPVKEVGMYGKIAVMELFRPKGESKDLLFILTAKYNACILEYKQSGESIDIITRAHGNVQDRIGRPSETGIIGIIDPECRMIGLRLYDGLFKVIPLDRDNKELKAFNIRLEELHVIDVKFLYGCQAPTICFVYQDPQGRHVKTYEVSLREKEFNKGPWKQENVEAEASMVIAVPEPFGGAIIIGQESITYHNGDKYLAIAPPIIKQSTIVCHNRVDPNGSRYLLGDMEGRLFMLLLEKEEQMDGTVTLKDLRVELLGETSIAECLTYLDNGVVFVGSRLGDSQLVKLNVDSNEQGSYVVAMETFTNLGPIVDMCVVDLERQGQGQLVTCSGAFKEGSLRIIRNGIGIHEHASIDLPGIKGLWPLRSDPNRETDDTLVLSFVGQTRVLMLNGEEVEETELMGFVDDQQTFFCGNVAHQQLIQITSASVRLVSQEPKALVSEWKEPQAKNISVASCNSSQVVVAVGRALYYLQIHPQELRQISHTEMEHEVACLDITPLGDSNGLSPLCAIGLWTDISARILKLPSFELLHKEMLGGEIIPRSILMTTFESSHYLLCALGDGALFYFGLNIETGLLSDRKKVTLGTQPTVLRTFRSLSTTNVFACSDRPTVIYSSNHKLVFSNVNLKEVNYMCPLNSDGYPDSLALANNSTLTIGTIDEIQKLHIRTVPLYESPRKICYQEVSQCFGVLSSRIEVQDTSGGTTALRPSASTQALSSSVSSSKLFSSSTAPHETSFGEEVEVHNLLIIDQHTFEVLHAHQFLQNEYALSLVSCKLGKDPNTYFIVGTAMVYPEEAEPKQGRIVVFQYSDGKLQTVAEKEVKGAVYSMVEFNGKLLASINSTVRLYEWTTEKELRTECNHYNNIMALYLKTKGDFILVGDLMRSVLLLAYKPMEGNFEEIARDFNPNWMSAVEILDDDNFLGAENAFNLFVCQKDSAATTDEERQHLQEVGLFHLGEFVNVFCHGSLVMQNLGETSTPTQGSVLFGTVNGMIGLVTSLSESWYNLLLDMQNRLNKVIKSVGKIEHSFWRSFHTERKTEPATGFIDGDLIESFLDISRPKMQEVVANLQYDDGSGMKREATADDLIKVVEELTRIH
T1 sequence (P30291 whole entry): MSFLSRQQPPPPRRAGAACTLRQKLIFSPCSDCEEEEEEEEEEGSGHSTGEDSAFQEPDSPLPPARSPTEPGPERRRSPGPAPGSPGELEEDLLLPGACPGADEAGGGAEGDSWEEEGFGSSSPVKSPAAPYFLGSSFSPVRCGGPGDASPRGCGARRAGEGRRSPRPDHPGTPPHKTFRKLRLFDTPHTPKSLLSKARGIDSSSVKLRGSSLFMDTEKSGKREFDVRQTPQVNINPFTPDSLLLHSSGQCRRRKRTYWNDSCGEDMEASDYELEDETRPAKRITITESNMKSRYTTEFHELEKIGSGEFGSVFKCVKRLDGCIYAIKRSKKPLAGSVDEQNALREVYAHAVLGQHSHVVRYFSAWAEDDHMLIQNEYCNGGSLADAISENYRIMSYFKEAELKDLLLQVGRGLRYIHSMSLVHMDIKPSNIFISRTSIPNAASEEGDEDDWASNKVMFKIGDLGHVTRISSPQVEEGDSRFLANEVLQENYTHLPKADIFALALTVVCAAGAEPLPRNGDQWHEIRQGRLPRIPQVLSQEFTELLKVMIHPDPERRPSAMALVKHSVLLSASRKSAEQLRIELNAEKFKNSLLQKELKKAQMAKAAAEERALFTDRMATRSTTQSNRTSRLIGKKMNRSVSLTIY
T1 sequence (Q96SW2 whole entry): as the sequence (Q96SW2 whole entry) above
T1 sequence (Q16531 whole entry partner): as the sequence (Q16531 whole entry partner) above
T2 sequence (Q13422 whole entry): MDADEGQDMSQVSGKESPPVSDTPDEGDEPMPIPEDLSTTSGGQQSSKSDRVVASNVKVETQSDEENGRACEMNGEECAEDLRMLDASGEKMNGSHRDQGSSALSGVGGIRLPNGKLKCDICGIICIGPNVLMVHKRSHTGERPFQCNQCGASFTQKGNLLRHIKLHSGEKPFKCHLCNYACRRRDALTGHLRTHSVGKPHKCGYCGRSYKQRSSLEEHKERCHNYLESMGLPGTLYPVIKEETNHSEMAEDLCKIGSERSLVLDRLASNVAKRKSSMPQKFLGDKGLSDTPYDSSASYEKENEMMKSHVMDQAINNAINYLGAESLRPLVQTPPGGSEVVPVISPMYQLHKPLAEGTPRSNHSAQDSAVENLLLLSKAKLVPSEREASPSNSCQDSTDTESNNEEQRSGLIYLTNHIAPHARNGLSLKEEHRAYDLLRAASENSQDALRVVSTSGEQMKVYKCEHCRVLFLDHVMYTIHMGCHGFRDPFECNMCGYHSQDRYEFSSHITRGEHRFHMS
T2 sequence (Q96SW2 whole entry): as the sequence (Q96SW2 whole entry) above
T2 sequence (Q16531 whole entry partner): as the sequence (Q16531 whole entry partner) above
T6 sequence (P15170 whole entry): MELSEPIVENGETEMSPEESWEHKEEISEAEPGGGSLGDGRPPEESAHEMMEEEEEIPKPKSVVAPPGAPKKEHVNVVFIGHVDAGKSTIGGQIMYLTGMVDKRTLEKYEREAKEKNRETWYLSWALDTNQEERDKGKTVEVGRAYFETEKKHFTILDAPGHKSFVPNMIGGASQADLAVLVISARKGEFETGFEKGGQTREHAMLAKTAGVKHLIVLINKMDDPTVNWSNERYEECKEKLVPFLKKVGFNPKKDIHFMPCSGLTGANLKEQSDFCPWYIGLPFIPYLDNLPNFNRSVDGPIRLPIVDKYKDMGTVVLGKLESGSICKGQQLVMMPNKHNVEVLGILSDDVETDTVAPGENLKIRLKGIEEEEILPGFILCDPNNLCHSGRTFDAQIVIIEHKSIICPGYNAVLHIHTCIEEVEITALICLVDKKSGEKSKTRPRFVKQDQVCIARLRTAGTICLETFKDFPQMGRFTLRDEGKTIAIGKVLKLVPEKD
T6 sequence (Q96SW2 whole entry): as the sequence (Q96SW2 whole entry) above
T6 sequence (Q16531 whole entry partner): as the sequence (Q16531 whole entry partner) above
T5 sequence (P48729 whole entry): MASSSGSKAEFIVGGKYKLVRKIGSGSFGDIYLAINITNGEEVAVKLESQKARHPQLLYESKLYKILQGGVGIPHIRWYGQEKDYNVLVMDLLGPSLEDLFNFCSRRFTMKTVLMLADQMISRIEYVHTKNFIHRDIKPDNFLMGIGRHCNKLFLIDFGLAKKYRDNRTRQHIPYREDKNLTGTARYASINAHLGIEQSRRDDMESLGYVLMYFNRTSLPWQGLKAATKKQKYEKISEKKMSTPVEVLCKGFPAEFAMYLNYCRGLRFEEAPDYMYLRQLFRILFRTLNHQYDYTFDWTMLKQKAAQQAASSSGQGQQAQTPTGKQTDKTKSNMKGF
T5 sequence (Q96SW2 whole entry): as the sequence (Q96SW2 whole entry) above
T5 sequence (Q16531 whole entry partner): as the sequence (Q16531 whole entry partner) above

SMILES | WEE1 substrate protein remaining % (WEE1) | IKZF1 substrate protein remaining % (IKZF1) | IKZF2 substrate protein remaining % (IKZF2) | IKZF3 substrate protein remaining % (IKZF3) | CK1α substrate protein remaining % (CK1α) | GSPT1 substrate protein remaining % (GSPT1)
O=C1CCN(N2C(=O)c3ccc(CN4CCC(c5ccccc5C(F)(F)F)CC4)cc3C2=O)C(=O)N1 [GT-06879, 2-(2,4-dioxotetrahydropyrimidin-1(2H)-yl)-5-((4-(2-(trifluoromethyl)phenyl)piperidin-1-yl)methyl)isoindoline-1,3-dione] | B (80%< substrate protein remaining % ≤100%) | B (80%< substrate protein remaining % ≤100%) | B (80%< substrate protein remaining % ≤100%) | B (80%< substrate protein remaining % ≤100%) | B (80%< substrate protein remaining % ≤100%) | A (0% ≤ substrate protein remaining % ≤80%)
O=C1CCN(N2C(=O)c3ccc(CN4CCC(c5cccc(C(F)(F)F)c5)CC4)cc3C2=O)C(=O)N1 [GT-06880, 2-(2,4-dioxotetrahydropyrimidin-1(2H)-yl)-5-((4-(3-(trifluoromethyl)phenyl)piperidin-1-yl)methyl)isoindoline-1,3-dione] | A (0% ≤ substrate protein remaining % ≤80%) | B (80%< substrate protein remaining % ≤100%) | B (80%< substrate protein remaining % ≤100%) | B (80%< substrate protein remaining % ≤100%) | B (80%< substrate protein remaining % ≤100%) | B (80%< substrate protein remaining % ≤100%)
Cc1ccc(N2CCN(Cc3ccc4c(c3)CN(N3CCC(=O)NC3=O)C4=O)CC2)c(C)c1 [GT-06882, 1-(5-((4-(2,4-dimethylphenyl)piperazin-1-yl)methyl)-1-oxoisoindolin-2-yl)dihydropyrimidine-2,4(1H,3H)-dione] | A (0% ≤ substrate protein remaining % ≤80%) | A (0% ≤ substrate protein remaining % ≤80%) | B (80%< substrate protein remaining % ≤100%) | B (80%< substrate protein remaining % ≤100%) | B (80%< substrate protein remaining % ≤100%) | A (0% ≤ substrate protein remaining % ≤80%)
Cc1ccc(Cl)cc1N1CCN(Cc2ccc3c(c2)CN(N2CCC(=O)NC2=O)C3=O)CC1 [GT-06883, 1-(5-((4-(5-chloro-2-methylphenyl)piperazin-1-yl)methyl)-1-oxoisoindolin-2-yl)dihydropyrimidine-2,4(1H,3H)-dione] | A (0% ≤ substrate protein remaining % ≤80%) | A (0% ≤ substrate protein remaining % ≤80%) | B (80%< substrate protein remaining % ≤100%) | B (80%< substrate protein remaining % ≤100%) | B (80%< substrate protein remaining % ≤100%) | A (0% ≤ substrate protein remaining % ≤80%)
O=C1CCN(N2Cc3cc(CN4CCC(c5ccc(Br)cc5)CC4)ccc3C2=O)C(=O)N1 [GT-06886, 1-(5-((4-(4-bromophenyl)piperidin-1-yl)methyl)-1-oxoisoindolin-2-yl)dihydropyrimidine-2,4(1H,3H)-dione] | B (80%< substrate protein remaining % ≤100%) | B (80%< substrate protein remaining % ≤100%) | A (0% ≤ substrate protein remaining % ≤80%) | B (80%< substrate protein remaining % ≤100%) | B (80%< substrate protein remaining % ≤100%) | A (0% ≤ substrate protein remaining % ≤80%)
O=C1CCN(N2Cc3cc(CN4CCC(c5ccccc5Cl)CC4)ccc3C2=O)C(=O)N1 [GT-06887, 1-(5-((4-(2-chlorophenyl)piperidin-1-yl)methyl)-1-oxoisoindolin-2-yl)dihydropyrimidine-2,4(1H,3H)-dione] | A (0% ≤ substrate protein remaining % ≤80%) | B (80%< substrate protein remaining % ≤100%) | A (0% ≤ substrate protein remaining % ≤80%) | B (80%< substrate protein remaining % ≤100%) | B (80%< substrate protein remaining % ≤100%) | A (0% ≤ substrate protein remaining % ≤80%)
O=C1CCN(N2Cc3cc(CN4CCC(c5ccc(Cl)cc5)CC4)ccc3C2=O)C(=O)N1 [GT-06888, 1-(5-((4-(4-chlorophenyl)piperidin-1-yl)methyl)-1-oxoisoindolin-2-yl)dihydropyrimidine-2,4(1H,3H)-dione] | A (0% ≤ substrate protein remaining % ≤80%) | B (80%< substrate protein remaining % ≤100%) | A (0% ≤ substrate protein remaining % ≤80%) | B (80%< substrate protein remaining % ≤100%) | B (80%< substrate protein remaining % ≤100%) | A (0% ≤ substrate protein remaining % ≤80%)
O=C1CCN(N2Cc3cc(CN4CCC(c5ccccc5F)CC4)ccc3C2=O)C(=O)N1 [GT-06889, 1-(5-((4-(2-fluorophenyl)piperidin-1-yl)methyl)-1-oxoisoindolin-2-yl)dihydropyrimidine-2,4(1H,3H)-dione] | A (0% ≤ substrate protein remaining % ≤80%) | B (80%< substrate protein remaining % ≤100%) | A (0% ≤ substrate protein remaining % ≤80%) | B (80%< substrate protein remaining % ≤100%) | B (80%< substrate protein remaining % ≤100%) | A (0% ≤ substrate protein remaining % ≤80%)
O=C1CCN(N2Cc3cc(CN4CCC(c5ccc(F)cc5)CC4)ccc3C2=O)C(=O)N1 [GT-06890, 1-(5-((4-(4-fluorophenyl)piperidin-1-yl)methyl)-1-oxoisoindolin-2-yl)dihydropyrimidine-2,4(1H,3H)-dione] | A (0% ≤ substrate protein remaining % ≤80%) | B (80%< substrate protein remaining % ≤100%) | B (80%< substrate protein remaining % ≤100%) | B (80%< substrate protein remaining % ≤100%) | B (80%< substrate protein remaining % ≤100%) | A (0% ≤ substrate protein remaining % ≤80%)
O=C1CCN(N2Cc3cc(CN4CCC(c5ccccc5C(F)(F)F)CC4)ccc3C2=O)C(=O)N1 [GT-06891, 1-(1-oxo-5-((4-(2-(trifluoromethyl)phenyl)piperidin-1-yl)methyl)isoindolin-2-yl)dihydropyrimidine-2,4(1H,3H)-dione] | A (0% ≤ substrate protein remaining % ≤80%) | B (80%< substrate protein remaining % ≤100%) | A (0% ≤ substrate protein remaining % ≤80%) | B (80%< substrate protein remaining % ≤100%) | B (80%< substrate protein remaining % ≤100%) | A (0% ≤ substrate protein remaining % ≤80%)
O=C1CCN(N2C(=O)c3ccc(CN4CCC(c5cccc(F)c5Cl)CC4)cc3C2=O)C(=O)N1 [GT-06895, 5-((4-(2-chloro-3-fluorophenyl)piperidin-1-yl)methyl)-2-(2,4-dioxotetrahydropyrimidin-1(2H)-yl)isoindoline-1,3-dione] | B (80%< substrate protein remaining % ≤100%) | A (0% ≤ substrate protein remaining % ≤80%) | B (80%< substrate protein remaining % ≤100%) | B (80%< substrate protein remaining % ≤100%) | B (80%< substrate protein remaining % ≤100%) | B (80%< substrate protein remaining % ≤100%)
O=C1CCN(N2C(=O)c3ccc(CN4CC=C(c5cccc(F)c5Cl)CC4)cc3C2=O)C(=O)N1 [GT-06896, 5-((4-(2-chloro-3-fluorophenyl)-3,6-dihydropyridin-1(2H)-yl)methyl)-2-(2,4-dioxotetrahydropyrimidin-1(2H)-yl)isoindoline-1,3-dione] | B (80%< substrate protein remaining % ≤100%) | A (0% ≤ substrate protein remaining % ≤80%) | B (80%< substrate protein remaining % ≤100%) | B (80%< substrate protein remaining % ≤100%) | B (80%< substrate protein remaining % ≤100%) | B (80%< substrate protein remaining % ≤100%)
O=C1CCN(N2C(=O)c3ccc(CN4CCN(c5ccc(F)cn5)CC4)cc3C2=O)C(=O)N1 [GT-06965, 2-(2,4-dioxotetrahydropyrimidin-1(2H)-yl)-5-((4-(5-fluoropyridin-2-yl)piperazin-1-yl)methyl)isoindoline-1,3-dione] | B (80%< substrate protein remaining % ≤100%) | B (80%< substrate protein remaining % ≤100%) | A (0% ≤ substrate protein remaining % ≤80%) | B (80%< substrate protein remaining % ≤100%) | B (80%< substrate protein remaining % ≤100%) | B (80%< substrate protein remaining % ≤100%)
